Consider 1 compound from ChEMBL document CHEMBL4725367, “Novel anticancer Hsp90 inhibitor disubstituted pyrazolyl 2-aminopyrimidine compound 7t induces cell cycle arrest and apoptosis via mitochondrial pathway in MCF-7 cells” (Bioorg Med Chem Lett, 2020).

Assay [1] concerns the target T1, Heat shock protein HSP90 (Homo sapiens) (UniProt P07900+P08238). As to the kind of experiment: Inhibition of HSP90 in human MCF7 cells assessed as induction of nuclear morphological changes by measuring nuclear fragmentation at 1 uM by DAPI staining based fluorescence microscopy analysis. Type of assay: cell-based.
For assay [2], the target named is T1, Heat shock protein HSP90 (Homo sapiens). The assay can be described thus: Inhibition of HSP90 in human MCF7 cells assessed as cell cycle arrest by measuring accumulation at Sub-G1 phase at 1 uM measured after 24 hrs by RNaseA/propidium iodide staining based flow cytometric analysis (reference value: 3.75 %). Also on record: scale not given: the % may be the effect or the level left.

For assay [3] the target is unchanged. The assay can be described thus: Inhibition of HSP90 in human MCF7 cells assessed as increase in ROS generation by measuring fluorescence intensity at 10 uM after 24 hrs by DCFDA staining based flow cytometry. Type of assay: cell-based.
Assay [4] has the same target. As to the kind of experiment: Inhibition of HSP90 in human MCF7 cells assessed as cell cycle arrest by measuring accumulation at S phase at 1 uM measured after 24 hrs by RNaseA/propidium iodide staining based flow cytometric analysis (reference value: 7.08 %). Also noted: scale not given: the % may be the effect or the level left.
Assay [5] shares this target. The assay can be described thus: Inhibition of HSP90 in human MCF7 cells assessed as induction of apoptosis by measuring live cells at 1 uM measured after 24 hrs by annexinV-FITC/propidium iodide staining based flow cytometry (reference value: 90.77 %). Also on record: scale not given: the % may be the effect or the level left. It counts as cell-based.
For assay [6] the target is unchanged. The assay can be described thus: Inhibition of HSP90 in human MCF7 cells assessed as cell cycle arrest by measuring accumulation at G0/G1 phase at 1 uM measured after 24 hrs by RNaseA/propidium iodide staining based flow cytometric analysis (reference value: 39.10 %). Also noted: scale not given: the % may be the effect or the level left.
For assay [7] the target is unchanged. As to the kind of experiment: Inhibition of HSP90 in human MCF7 cells assessed as induction of mitochondrial membrane potential loss by measuring cell population with mitochondrial membrane potential collapse at 1 uM after 24 hrs by JC1 staining-based flow cytometry analysis (reference value: 6.53 %). Also noted: scale not given: the % may be the effect or the level left.

Assay [8] shares this target. As to the kind of experiment: Inhibition of HSP90 in human MCF7 cells assessed as induction of apoptosis by measuring late apototic cells at 1 uM measured after 24 hrs by annexinV-FITC/propidium iodide staining based flow cytometry (reference value: 7.91 %). Type of assay: cell-based. Also on record: scale not given: the % may be the effect or the level left.
Assay [9] shares this target. The assay can be described thus: Inhibition of HSP90 in human MCF7 cells assessed as induction of nuclear morphological changes by measuring horse shoe shaped nuclei formation at 1 uM by DAPI staining based fluorescence microscopy analysis. Type of assay: cell-based.
For assay [10] the target is unchanged. The assay can be described thus: Inhibition of HSP90 in human MCF7 cells assessed as induction of morphological changes by measuring membrane blebbing at 1 uM by acridine orange/ethidium bromide staining based fluorescence microscopy analysis. Type of assay: cell-based.
Assay [11] has the same target. The assay can be described thus: Inhibition of HSP90 in human MCF7 cells assessed as induction of apoptosis by measuring early apototic cells at 1 uM measured after 24 hrs by annexinV-FITC/propidium iodide staining based flow cytometry (reference value: 1.31 %). Type of assay: cell-based. Also on record: scale not given: the % may be the effect or the level left.

Assay [12] has the same target. The assay can be described thus: Inhibition of HSP90 in human MCF7 cells assessed as induction of apoptosis by measuring total apoptotic and dead cell population at 1 uM measured after 24 hrs by annexinV-FITC/propidium iodide staining based flow cytometry (reference value: 9.23 %). Also noted: scale not given: the % may be the effect or the level left.
The target is the same in assay [13]. The assay can be described thus: Inhibition of HSP90 in human MCF7 cells assessed as induction of apoptosis by measuring necrotic cells at 1 uM measured after 24 hrs by annexinV-FITC/propidium iodide staining based flow cytometry (reference value: 0.01 %). It counts as cell-based. Also on record: scale not given: the % may be the effect or the level left.
The target is the same in assay [14]. As to the kind of experiment: Inhibition of HSP90 in human MCF7 cells assessed as cell cycle arrest by measuring accumulation at G2/M phase at 1 uM measured after 24 hrs by RNaseA/propidium iodide staining based flow cytometric analysis (reference value: 25.08 %). Also on record: scale not given: the % may be the effect or the level left.
Assay [15] has the same target. As to the kind of experiment: Inhibition of HSP90 in human MCF7 cells assessed as induction of morphological changes by measuring nuclei condensation at 1 uM by acridine orange/ethidium bromide staining based fluorescence microscopy analysis. Type of assay: cell-based.
Assay [16] shares this target. The assay can be described thus: Inhibition of HSP90 in human MCF7 cells assessed as induction of mitochondrial membrane potential loss by measuring cell population with intact mitochondrial membrane potential at 1 uM after 24 hrs by JC1 staining-based flow cytometry analysis (reference value: 92.39 %). Also on record: scale not given: the % may be the effect or the level left.

Assay [17] has the same target. As to the kind of experiment: Inhibition of HSP90 in human MCF7 cells assessed as induction of morphological changes by measuring apoptotic body formation at 1 uM by acridine orange/ethidium bromide staining based fluorescence microscopy analysis. Type of assay: cell-based.

Activity calls are given as the source filed them. The rule behind the calls is not given here.

Take `O=c1[nH]cc(F)c(=O)[nH]1`: the outcome in [1] was Active. Also, the Activity amounted to 12.2% in assay [2]; 7.99% in [4]; 70.5% in assay [5]; 27.4% in assay [6]; 26.8% in assay [7]; 27.2% in assay [8]. Also, the Activity in assay [11] worked out at 1.94%; in assay [12], 29.5%; in [13] it was 0.36%; in assay [14], 26.4%; in assay [16], 70.3%. The inhibition entry in [3], in [9], in assay [10], in [15] and in assay [17] was “Active” in each case.
